Series [1] has as its target T1, β5i subunit of human immunoproteasome (Homo sapiens, UniProt P28062).
T1 construct: purchased Boston Biochem, Inc., Cambridge, MA, USA
The series can be described thus: Preliminary evaluation of inhibition of the β5i subunit (residual activity, Suc-LLVY-AMC fluorescence). Type of series: biochemical. Conditions: test compound 10 µM, 30 min preincubation at 37 °C, Suc-LLVY-AMC 25 µM, immunoproteasome 0.25 µg/mL. How it is done:
Appropriate stock solutions (mM concentration) of the test compounds were prepared in DMSO. Subsequent dilutions of the compounds, as well as the immunoproteasome and the substrate were prepared in buffered solution (50 mM Tris-HCI (pH 8.0), 0.5 mM EDTA, 0.01% SDS). To a 96-well black microtiter plate, human immunoproteasome (final concentration, 0.25 µg/mL) (Boston Biochem, Inc., Cambridge, MA, USA) was added, followed by either test compounds (10 µM final concentration) or buffered solution (with and without the DMSO), which accounted for the control group. Microtiter plate was covered with aluminum foil and incubated at 37 °C for 30 minutes with medium agitation. The reaction was initiated by the addition of β5- and β5i-selective substrate Suc-LLVY-AMC (25 µM final concentration). The reaction progress was recorded on the BioTek Synergy HT microplate reader by monitoring fluorescence at 460 nm (λex = 360 nm) every 5 minutes for 120 min at 37 °C. At least two independent experiments were performed. The initial linear ranges (between 20th and 60th minute) were used to calculate the slope of the line (k) by dividing the difference of fluorescence intensities (F) with the time difference (t) (Equation 1). The residual activities in percentages were calculated from the slopes obtained (Equation 2). The calculations were performed in Microsoft Office Excel 2007. k = ΔF/Δt [formula] • k slope of the line • F fluorescence intensity • t time (min) Residualactivityin% = kt /knt *100% [formula] • kt slope of the line for the treated enzyme • knt slope of the line for the non-treated enzyme

Series [2] concerns the target T1, β5i subunit of human immunoproteasome. Description: Evaluation of reversible inhibitors of the β5i subunit (mode of inhibition and Ki, Dixon plots). Type of series: biochemical. The following applies: competitive inhibitors (footnote b), Suc-LLVY-AMC 12.5 µM to 125 µM, immunoproteasome 0.25 µg/mL. How it is done:
The test compounds from the preliminary inhibitory assay with residual activities equal to or lower than 60% were characterized further by determining the mode of inhibition (competitive, non-competitive, uncompetitive, mixed inhibition). The assays were performed as described above. Five or more different concentrations of the test compounds ranging from 0.1 µM to 100 µM were used to determine the kinetic parameters at four different substrate concentrations (Suc-LLVY-AMC ranging from 12.5 µM to 125 µM). Final concentration of the immunoproteasome remained the same as before (0.25 µg/mL). The results obtained were analyzed as outlined above (see Equations 1 and 2), and two plots were derived using Microsoft Office Excel 2007:
- 1/v plotted against inhibitor concentration (Dixon plot; v- velocity, equal to the slope of the line k),
- [S]/v plotted against different concentrations of inhibitor ([S] equals substrate concentration).
The mode of inhibition was estimated from the relative positions of the lines obtained.

The target is the same in series [3]. The series can be described thus: Evaluation of irreversible inhibitors of the β5i subunit (IC50). Type of series: biochemical. Conditions: Suc-LLVY-AMC 25 µM, immunoproteasome 0.25 µg/mL, fluorescence increase between 20th and 60th minute. How it is done: The test compounds with time-dependent inhibitory activities were treated and evaluated as irreversible inhibitors. The assay was performed as described in the 44 section Preliminary evaluation of inhibition of the β5i subunit of human immunoproteasome. At least seven different concentrations of the test compounds ranging from 0.001 µM to 50 µM were used. The final concentrations of the substrate Suc-LLVY-AMC and the immunoproteasome were 25 µM and 0.25 µg/mL, respectively. At least two independent experiments were performed. The increases in fluorescence intensity between 20th and 60th minute and appropriate test compounds concentrations were analyzed with GraphPad Prism 5.01 to determine the IC50 values. Table 1. Inhibitory potencies of reversible psoralen-based inhibitors against the β5i subunit of the human immunoproteasome. The following compounds are not part of the invention.

In series [4] the test system is MHC-I receptors on the surface. Conditions: Muchamuel T. et al. 2009; cited from earlier work.
For another series, the target named is β5i (Homo sapiens, UniProt P28062). Conditions: inhibition of the β5i; Singh A.V. et al. 2011; cited from earlier work.
A further series concerns the target proteasomal β5 (Homo sapiens, UniProt P28074). The following applies: Singh A.V. et al. 2011; cited from earlier work.
For series [5], the system named is other catalytic subunits (β1, β1i, β2, β2i). The following applies: cited from earlier work.
The test system of series [6] is normal peripheral blood mononuclear cells. Conditions: exposure to high (up to 20 µM) concentrations; cited from earlier work.

Turning to `Cc1c(N)c(=O)oc2cc3occ(-c4ccccc4)c3cc12`, in series [1], the “RA (%)” value turned out to be 88%. Still for that read-out and setting: in the case of `Cc1c(CCC(=O)O)c(=O)oc2cc3occ(C(C)(C)C)c3cc12` [n=2, 1R=t-Bu] it was 83%. By Ki is commonly meant the equilibrium dissociation constant of an inhibitor or competing ligand from its target. High values mean a looser hold on the target, low ones a stronger hold on the target. In series [2], `Cc1c(CN)c(=O)oc2cc3occ(-c4ccccc4)c3cc12` showed a Ki of 39.6 µM.

For the compound `Cc1c(CC(=O)O)c(=O)oc2cc3occ(C4CCCCC4)c3cc12`, the Ki in series [2] came out at 198 µM. Same read-out and setting: the result for `Cc1c(CCC(=O)O)c(=O)oc2cc3occ(-c4ccco4)c3cc12` reads 116 µM.

Usually IC50 stands for the concentration that inhibits the measured activity by half. For the compound `Cc1c(CCC(=O)ON2C(=O)CCC2=O)c(=O)oc2cc3occ(-c4ccccc4)c3cc12`, the IC50 in series [3] worked out at 0.09 µM.

Regarding `Cc1cc(-c2coc3cc4oc(=O)c(CCC(=O)O)c(C)c4cc23)c(C)o1`, the “RA (%)” value in series [1] is reported as 100%.

For the compound `COc1ccc(-c2coc3cc4oc(=O)c(CC(=O)O)c(C)c4cc23)cc1`, the inhibitory constant (Ki) in series [2] came to 8.2 µM.

Turning to `Cc1c(CCC(=O)O)c(=O)oc2cc3occ(C4CCCCC4)c3cc12`, the “RA (%)” value in series [1] is 102%. `Cc1c(CCC(=O)O)c(=O)oc2cc3occ(-c4ccccc4)c3cc12` had an inhibitory constant (Ki) in series [2] of 1.6 µM. In the case of `COc1ccc(C[C@H](NC(=O)[C@H](C)NC(=O)CN2CCOCC2)C(=O)N[C@@H](Cc2ccccc2)C(=O)[C@@]2(C)CO2)cc1` [PR-957], in series [4], the “reduction of the expression of MHC-I receptors on the surface to” value was 50%.

The compound `Cc1c(CC(=O)ON2C(=O)CCC2=O)c(=O)oc2cc3occ(-c4ccccc4)c3cc12` had an IC50 in series [3] of 6.4 µM. As for `COc1ccc(-c2coc3cc4oc(=O)c(CCC(=O)O)c(C)c4cc23)cc1`, the “RA (%)” value in series [1] came to 84%. `C=CC(=O)Nc1c(C)c2cc3c(-c4ccccc4)coc3cc2oc1=O` came in with an IC50 in series [3] of 20.5 µM. As to `Cc1c(C(=O)O)c(=O)oc2cc3occ(-c4ccccc4)c3cc12`, the “RA (%)” value in series [1] is listed as 82%.

In the case of `COc1cccc(-c2coc3cc4oc(=O)c(CCC(=O)O)c(C)c4cc23)c1`, affinity in series [2] was put at a Ki of 29.6 µM. On the same count and under the same terms, the result for `Cc1c(CC(=O)O)c(=O)oc2cc3occ(-c4ccccc4)c3cc12` reads 2.4 µM. For the compound `CC1=C(C(=O)N[C@H](C)C(=O)N[C@@H](Cc2c[nH]c3ccccc23)C(=O)N[C@@H](Cc2ccccc2)C(=O)[C@@]2(C)CO2)Cc2ccccc21` [PR-924], the IC50 at β5i was 0.022 µM. Moreover, the “selectivity for inhibition of the β5i over proteasomal β5” value on proteasomal β5 was more than 100 fold. Moreover, the “inhibition of other catalytic subunits” value in series [5] is recorded as “little or no inhibition”. Besides, the “toxicities in normal peripheral blood mononuclear cells” value in series [6] is on record as “no significant toxicities”. Turning to `Cc1coc2cc3oc(=O)c(CC(=O)O)c(C)c3cc12` [n=1, 1R=Me], the “RA (%)” value in series [1] was 88%. For `Cc1c(CCC(=O)O)c(=O)oc2cc3occ(-c4ccc(Br)cc4)c3cc12`, the inhibition constant (Ki) in series [2] amounted to 137 µM. As for `Cc1c(CC(=O)O)c(=O)oc2cc3occ(C(C)(C)C)c3cc12` [n=1, 1R=t-Bu], in series [1], the “RA (%)” value is given as 85%.

Regarding `Cc1coc2cc3oc(=O)c(CCC(=O)O)c(C)c3cc12` [n=2, 1R=Me], in series [1], the “RA (%)” value is recorded as 94%. For `COc1cccc(-c2coc3cc4oc(=O)c(CC(=O)O)c(C)c4cc23)c1`, the inhibition constant Ki in series [2] is 7 µM.

Regarding `Cc1cc(-c2coc3cc4oc(=O)c(CC(=O)O)c(C)c4cc23)c(C)s1`, the Ki in series [2] came out at 36.5 µM. The same measure, in the same setting: the result for `Cc1cc(-c2coc3cc4oc(=O)c(CC(=O)O)c(C)c4cc23)c(C)o1` reads 351 µM. On the same count and under the same terms, in the case of `Cc1c(CC(=O)O)c(=O)oc2cc3occ(-c4ccc(Br)cc4)c3cc12` it was 12.7 µM; in that of `Cc1c(CC(=O)O)c(=O)oc2cc3occ(-c4ccco4)c3cc12`, 89.3 µM; in that of `Cc1cc(-c2coc3cc4oc(=O)c(CCC(=O)O)c(C)c4cc23)c(C)s1`, 52.3 µM. Same read-out and setting: the result for `O=C(O)Cc1cc2cc3c(-c4ccccc4)coc3cc2oc1=O` reads 3.8 µM.

(Values after patent EP3256120B1, “PSORALEN DERIVATIVES AS NON-PEPTIDIC INHIBITORS OF CHYMOTRYPSIN-LIKE ACTIVITY OF THE IMMUNOPROTEASOME” (Univerza v Ljubljani, priority 2015, dated 2016).)
